In patent US8263353B2, “Method for detecting autoprocessed, secreted PCSK9” (Merck Sharp & Dohme Corp., priority 2007, dated 2012):

What was measured:
Format in all cases: cell-based
[1] = test system: diI-LDL uptake in HEK293 cells; test: DiI-LDL uptake assay (PCSK9-dependent LDL-uptake assay)
Protocol: Blood for LDL isolation was obtained from healthy human volunteers. Blood (200 ml) was collected in EDTA tubes and spun at 15,000 rpm for 15 min at 4° C. Plasma density was adjusted to 1.02 g/ml with sodium bromide and the tubes were centrifuged at 45,000 rpm in Ti70 ultracentrifuge rotor for 20 hr. The VLDL layer was removed and the bottom layer was recalibrated to a density of 1.063 g/ml with sodium bromide. The tubes were again centrifuged at 45,000 rpm in Ti70 rotor for 72 hr. The LDL layer was removed and dialysed against PBS pH 7.4 and 0.5 M EDTA. The final protein concentration was determined using a BCA Protein Assay Kit. LDL was labeled with a fluorescent DiI particle (Molecular Probes). A stock solution containing 3 mg of DiI dissolved in 1 ml of dimethyl sulfoxide (DMSO) was prepared. This stock solution of D11 was added to LDL at a final concentration of 135 μg of DiI to 1 ml of LDL. The labeling reaction was incubated at 37° C. for 24 hr in the dark followed by LDL isolation as mentioned above.
HEK293 cells stably expressing the vector pcDNA3.1 alone were plated in a 96-well poly D-lysine coated plate (Corning) at a density of 30,000 cells/well in 1×DMEM, containing 1 mg/ml G418 and 10% FBS (HEK293). A similar plating protocol was followed for HepG2 and CHO cells except that G418 was not added to the media. After 24 hr, the media was switched to DMEM media lacking serum. After 18 hr, the media was removed and the cells were washed with OptiMEM (Invitrogen). Purified PCSK9 protein was added to the cells in 100 μl of mixture B (DMEM containing 10% lipoprotein deficient serum (LPDS) (Intracel) and 10 μg/ml dI-LDL). To measure non-specific binding, 100 μl of mixture B that also contained 400 μg/ml unlabeled LDL was added to control wells. The plates were incubated at 37° C. for 6.5 hours and the cells were washed quickly in Tris-buffered saline (TBS, Biorad) containing 2 mg/ml Bovine Serum Albumin (BSA) (Sigma). The wash step was repeated, but this time the wash buffer was incubated for 2 min with the cells. Last, the cells were quickly washed twice with TBS (without BSA) and lysed in 100 μl RIPA buffer. The lysate was transferred to a 96-well black plate (Thermo Labsystem) and fluorescence was measured using a SpectraMAX tunable spectrofluorometer (Molecular Devices) at an excitation wavelength of 520 nm and an emission wavelength of […] Total cellular protein was measured in each well using a BCA Protein Assay and the fluorescence units were normalized to total protein. The amount of specific LDL uptake (specific counts) is the difference between the total counts measured (in the absence of unlabeled LDL) and the counts measured in the presence of an excess of unlabeled LDL (non-specific background fluorescence). […]

PCSK9 processing [2] = biological target: T1, PCSK9 processing (Homo sapiens, UniProt Q8NBP7, D186A/G670E/V474I); test: Western blot of HEK293 cells stably expressing PCSK9 mutant D186A; conditions: HEK293 stable cell line; FIG. 11A
T1 construct: expressed in transfected cells
T1 sequence (Q8NBP7 31-692 D186A/V474I/G670E): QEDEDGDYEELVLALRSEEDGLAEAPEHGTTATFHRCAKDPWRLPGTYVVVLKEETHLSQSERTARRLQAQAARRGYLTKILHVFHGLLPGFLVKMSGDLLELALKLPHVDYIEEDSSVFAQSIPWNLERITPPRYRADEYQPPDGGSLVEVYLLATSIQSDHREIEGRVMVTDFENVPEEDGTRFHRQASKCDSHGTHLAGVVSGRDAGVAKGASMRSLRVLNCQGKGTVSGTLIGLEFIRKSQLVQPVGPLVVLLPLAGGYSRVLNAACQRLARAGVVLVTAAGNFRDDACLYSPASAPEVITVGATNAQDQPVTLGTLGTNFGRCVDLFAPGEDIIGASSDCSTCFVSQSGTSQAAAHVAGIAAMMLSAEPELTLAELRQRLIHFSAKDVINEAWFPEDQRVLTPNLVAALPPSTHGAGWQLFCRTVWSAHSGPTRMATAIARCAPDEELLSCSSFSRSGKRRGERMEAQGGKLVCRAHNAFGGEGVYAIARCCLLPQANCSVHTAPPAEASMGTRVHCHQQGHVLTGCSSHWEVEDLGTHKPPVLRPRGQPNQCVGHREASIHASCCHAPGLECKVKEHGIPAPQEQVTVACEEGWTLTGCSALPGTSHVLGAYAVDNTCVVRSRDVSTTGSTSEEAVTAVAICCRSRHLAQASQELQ
Protocol: (§1) Cells carrying vector alone (pcDNA3.1) or vector plus PCSK9 (PCSK9-152 FLAG-V5/His and PCSK9-152 FLAG-V5/His-S386A) were plated in 1×DMEM containing 1 mg/ml G418 supplemented with 10% FBS. After 24 hr, the media was switched to DMEM media lacking serum. After an additional 6 hr, the media was removed and the cells were lysed in RIPA buffer (TEKNOVA) plus Complete protease inhibitor cocktail (Roche). Protein concentration was assayed with BCA Protein Assay Kit (Pierce). […] of proteins from lysate or 15 μl media were loaded on 10-20% Tris-Glycine gels (Invitrogen). Following transfer, membranes were successively incubated with 1:5000 anti-VS (Invitrogen), 1:3000 anti-FLAG ml (Sigma-Aldrich Co.) or 1:3000 anti_FLAG m2 (Sigma-Aldrich Co.) primary antibody and 1:3000 anti-mouse IgG (H+L) alkaline phosphatase conjugate (Promega). Bands were subsequently detected using a 1-step NBT/BCIP Kit (Pierce) according to manufacturer's instructions.
420:55-67. […] Media from the D186A stable cell line was purified using column chromatography (as described) to obtain both purified nonprocessed and processed D186A (FIG. 11B). Similar to the WT PCSK9 protein processed D186A retains the pro domain after several column purifications (FIG. 11B).

PCSK9 processing [3] = biological target: T2, PCSK9 processing (Homo sapiens, UniProt Q8NBP7, G670E/V474I); test: Co-transfection of PCSK9 pro domain with wild type V5/His-tagged PCSK9, western blot of cell lysate and media; conditions: co-transfected pro domain
T2 construct: expressed in transfected cells
T2 sequence (Q8NBP7 31-692 V474I/G670E): as the sequence (Q8NBP7 31-692 D186A/V474I/G670E) above, with A156D counted along it
Protocol: FIGS. 10A and 10B illustrate inhibition of PSCK9 processing through co-transfection of PCSK9 pro domain. The figure illustrates the inhibition of PCSK9 processing is similar whether the domain is untagged, or tagged at the N-terminus with either an HA or His tag. […] The lanes are in order wild-type; wild-type; pro domain; HA pro domain; His pro domain.
as §1, with “instructions. […]” for “instructions.”

## processed D186A: Purified secreted, autoprocessed form of human PCSK9 catalytic-triad mutant D186A, retaining the pro domain
[1]; HEK293 cells
  fold weaker in potency than WT PCSK9: approximately 4 fold
[1]; HEK293 cells, purified protein, FIG. 11C, read-out: EC50 (amount of PCSK9 protein required for 50% inhibition of diI-LDL uptake)
  EC50: 189 nM

## D186A PCSK9 mutant: Human PCSK9 single catalytic-triad mutant D186A stably expressed in HEK293 cells
PCSK9 processing [2]
  extent of processing: 10-20%

## nonprocessed D186A: Purified secreted, nonprocessed form of human PCSK9 mutant D186A (SEQ ID NO: 34)
[1]; FIG. 11C
  fold less active than processed PCSK9 in PCSK9-dependent LDL uptake: ~20 fold
[1]; HEK293 cells, purified protein, FIG. 11C
  activity in PCSK9-dependent LDL-uptake assay: only weakly active

## PCSK9 pro domain: Human PCSK9 pro domain (SEQ ID NO: 20, residues 31-152) expressed from co-transfected nucleic acid
PCSK9 processing [3]; cell lysate, FIG. 10A
  amount of processed PCSK9 in cell lysate compared to cells expressing wild type alone: reduced
PCSK9 processing [3]; media, FIG. 10B
  processed PCSK9 detected in the media: less processed PCSK9 was detected
